Results from ChEMBL document CHEMBL5500423, “More than an Amide Bioisostere: Discovery of 1,2,4-Triazole-containing Pyrazolo[1,5-a]pyrimidine Host CSNK2 Inhibitors for Combatting β-Coronavirus Replication” (J Med Chem, 2024).
Activity calls are given as the source filed them. No cut-off for these calls is given here.

Key:
[1] = target: T1, Casein kinase II subunit alpha' (Homo sapiens, UniProt P19784); test: Inhibition of human CSNK2A2 expressed in HEK293 cells incubated for 2 hrs by NanoBRET assay; assay type: cell-based
Target sequence in this assay (P19784 whole entry): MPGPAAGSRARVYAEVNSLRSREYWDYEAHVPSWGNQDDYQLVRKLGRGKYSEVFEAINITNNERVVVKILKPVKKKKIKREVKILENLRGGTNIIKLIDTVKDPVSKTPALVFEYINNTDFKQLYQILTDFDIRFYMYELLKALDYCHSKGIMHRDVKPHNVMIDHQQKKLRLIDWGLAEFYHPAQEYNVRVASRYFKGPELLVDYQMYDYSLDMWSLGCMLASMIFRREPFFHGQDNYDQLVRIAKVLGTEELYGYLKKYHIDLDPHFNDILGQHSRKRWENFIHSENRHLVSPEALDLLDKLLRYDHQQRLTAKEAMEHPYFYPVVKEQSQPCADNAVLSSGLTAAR

[2] = target: Death-associated protein kinase 2 (Homo sapiens, UniProt Q9UIK4); test: Inhibition of human DAPK2 expressed in HEK293 cells incubated for 2 hrs by NanoBRET assay; assay type: cell-based
Death-associated protein kinase 2, sequence (Q9UIK4 whole entry): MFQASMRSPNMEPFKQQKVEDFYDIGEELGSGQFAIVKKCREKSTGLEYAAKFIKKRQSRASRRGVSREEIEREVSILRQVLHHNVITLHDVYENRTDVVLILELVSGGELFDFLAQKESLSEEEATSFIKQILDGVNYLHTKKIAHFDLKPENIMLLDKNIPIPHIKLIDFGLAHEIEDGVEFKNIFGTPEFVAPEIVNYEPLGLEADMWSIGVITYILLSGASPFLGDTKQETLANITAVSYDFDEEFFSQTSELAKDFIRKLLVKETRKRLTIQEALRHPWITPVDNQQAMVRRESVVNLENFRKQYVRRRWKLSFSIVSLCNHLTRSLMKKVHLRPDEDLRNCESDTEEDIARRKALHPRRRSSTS

[3] = target: Dual specificity protein kinase CLK2 (Homo sapiens, UniProt P49760); test: Inhibition of human CLK2 expressed in HEK293 cells incubated for 2 hrs by NanoBRET assay; assay type: cell-based
Dual specificity protein kinase CLK2, sequence (P49760 whole entry): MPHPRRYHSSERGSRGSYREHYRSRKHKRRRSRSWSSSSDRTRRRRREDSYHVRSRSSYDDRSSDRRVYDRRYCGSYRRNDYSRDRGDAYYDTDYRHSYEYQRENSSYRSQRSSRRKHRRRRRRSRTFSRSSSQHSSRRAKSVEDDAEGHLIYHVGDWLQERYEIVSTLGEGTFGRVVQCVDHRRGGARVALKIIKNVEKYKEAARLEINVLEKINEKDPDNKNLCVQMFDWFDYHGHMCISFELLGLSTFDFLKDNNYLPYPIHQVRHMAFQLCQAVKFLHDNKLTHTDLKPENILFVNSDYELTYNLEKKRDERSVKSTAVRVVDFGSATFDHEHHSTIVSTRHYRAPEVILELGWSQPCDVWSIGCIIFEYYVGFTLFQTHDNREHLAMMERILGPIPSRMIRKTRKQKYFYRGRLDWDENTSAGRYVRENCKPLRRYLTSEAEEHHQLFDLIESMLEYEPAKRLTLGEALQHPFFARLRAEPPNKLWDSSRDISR

[4] = target: Cyclin-dependent kinase 7 (Homo sapiens, UniProt P50613); test: Inhibition of human CDK7 expressed in HEK293 cells incubated for 2 hrs by NanoBRET assay; assay type: cell-based
Cyclin-dependent kinase 7, sequence (P50613 whole entry): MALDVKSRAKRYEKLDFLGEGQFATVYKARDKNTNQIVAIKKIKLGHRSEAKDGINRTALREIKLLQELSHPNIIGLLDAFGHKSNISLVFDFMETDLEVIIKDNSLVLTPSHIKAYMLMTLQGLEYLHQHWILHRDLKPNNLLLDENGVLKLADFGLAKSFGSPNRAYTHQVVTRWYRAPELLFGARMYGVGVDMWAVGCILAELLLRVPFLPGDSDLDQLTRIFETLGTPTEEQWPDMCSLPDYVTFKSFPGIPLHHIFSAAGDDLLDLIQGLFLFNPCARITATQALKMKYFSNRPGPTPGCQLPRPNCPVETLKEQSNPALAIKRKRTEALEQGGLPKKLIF

[5] = target: Casein kinase 2 (Homo sapiens) (UniProt P67870+P68400+P19784+Q8NEV1); test: Inhibition of CSNK2 downstream signaling in human A549-ACE2 cells assessed as reduction in EIF2S2 phosphorylation at 1 to 5 uM measured after 24 hrs by Western blot analysis; assay type: cell-based; details: dose 1-5 µM
[6] = Apparent permeability from basolateral to apical side in MDCK-MDR1 cells at 1 uM incubated for 2 hrs by fluorescence plate reader analysis; assay type: ADME, cell-based, Canis lupus familiaris; details: dog, mdck-mdr1, 2 h
[7] = target: T2, Homeodomain-interacting protein kinase 4 (Homo sapiens, UniProt Q8NE63); test: Inhibition of human HIPK4 expressed in HEK293 cells incubated for 2 hrs by NanoBRET assay; assay type: cell-based
T2 sequence (Q8NE63 whole entry): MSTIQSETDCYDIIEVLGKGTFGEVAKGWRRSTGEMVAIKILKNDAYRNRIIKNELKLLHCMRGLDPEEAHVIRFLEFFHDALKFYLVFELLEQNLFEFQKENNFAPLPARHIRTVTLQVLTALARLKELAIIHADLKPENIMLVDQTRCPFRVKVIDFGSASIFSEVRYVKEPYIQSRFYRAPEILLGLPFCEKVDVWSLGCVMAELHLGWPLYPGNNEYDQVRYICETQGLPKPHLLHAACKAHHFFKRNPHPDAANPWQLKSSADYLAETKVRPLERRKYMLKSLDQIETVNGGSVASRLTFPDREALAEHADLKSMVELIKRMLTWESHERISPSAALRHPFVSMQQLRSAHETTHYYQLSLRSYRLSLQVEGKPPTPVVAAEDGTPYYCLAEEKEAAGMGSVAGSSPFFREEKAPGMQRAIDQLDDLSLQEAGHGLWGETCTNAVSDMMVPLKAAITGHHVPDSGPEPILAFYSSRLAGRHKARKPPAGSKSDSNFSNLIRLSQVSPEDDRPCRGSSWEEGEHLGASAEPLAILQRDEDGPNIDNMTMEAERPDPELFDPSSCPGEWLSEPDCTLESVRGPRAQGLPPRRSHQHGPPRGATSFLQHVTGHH

[8] = Intrinsic clearance in male CD-1 mouse at 3 mg/kg, iv measured after 5 hrs by LC-MS/MS analysis; assay type: ADME, organism-based; details: in vivo
[9] = Cytotoxicity against human A549-ACE2 cells assessed as reduction in cell viability at >10 uM pretreated for 1 hrs followed by mock infection for 2 hrs and replacement with fresh medium containing compound and measured 48 hrs post mock-infection by LDH assay; assay type: toxicity, cell-based; details: a549-ace2, 49 h
[10] = target: T1, Casein kinase II subunit alpha'; test: Inhibition of NLuc-fused CSNK2A2 (unknown origin) expressed in digitonin-permeabilized HEK293 cells incubated for 25 mins by NanoBRET assay; assay type: cell-based
[11] = target: Casein kinase II subunit alpha (Homo sapiens, UniProt P68400); test: Inhibition of CSNK2A1 (unknown origin) in presence of ATP by Eurofins radiometric enzymatic assay
Casein kinase II subunit alpha, sequence (P68400 whole entry): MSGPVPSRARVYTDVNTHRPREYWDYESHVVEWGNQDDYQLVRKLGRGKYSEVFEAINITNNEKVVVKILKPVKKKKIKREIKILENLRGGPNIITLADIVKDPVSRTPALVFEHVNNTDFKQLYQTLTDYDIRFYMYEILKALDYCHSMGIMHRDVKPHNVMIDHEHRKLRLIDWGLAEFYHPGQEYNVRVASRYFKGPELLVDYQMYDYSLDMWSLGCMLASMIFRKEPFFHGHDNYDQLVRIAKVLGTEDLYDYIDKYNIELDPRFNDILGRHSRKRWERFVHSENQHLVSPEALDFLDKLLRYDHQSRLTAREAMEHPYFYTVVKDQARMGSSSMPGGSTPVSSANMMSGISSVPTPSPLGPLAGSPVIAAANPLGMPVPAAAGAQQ

[12] = target: Dual specificity tyrosine-phosphorylation-regulated kinase 1A (Homo sapiens) (UniProt Q13627); test: Binding affinity to human DYRK1A expressed in HEK293 cells assessed as target occupancy upto 3 uM incubated for 2 hrs by NanoBRET assay; assay type: cell-based
[13] = target: T1, Casein kinase II subunit alpha'; test: Inhibition of CSNK2A2 (unknown origin) in presence of ATP by Eurofins radiometric enzymatic assay
Target sequence in this assay (P19784 whole entry): as the sequence (P19784 whole entry) above

[14] = target: Dual specificity protein kinase CLK4 (Homo sapiens, UniProt Q9HAZ1); test: Inhibition of human CLK4 expressed in HEK293 cells incubated for 2 hrs by NanoBRET assay; assay type: cell-based
Dual specificity protein kinase CLK4, sequence (Q9HAZ1 whole entry): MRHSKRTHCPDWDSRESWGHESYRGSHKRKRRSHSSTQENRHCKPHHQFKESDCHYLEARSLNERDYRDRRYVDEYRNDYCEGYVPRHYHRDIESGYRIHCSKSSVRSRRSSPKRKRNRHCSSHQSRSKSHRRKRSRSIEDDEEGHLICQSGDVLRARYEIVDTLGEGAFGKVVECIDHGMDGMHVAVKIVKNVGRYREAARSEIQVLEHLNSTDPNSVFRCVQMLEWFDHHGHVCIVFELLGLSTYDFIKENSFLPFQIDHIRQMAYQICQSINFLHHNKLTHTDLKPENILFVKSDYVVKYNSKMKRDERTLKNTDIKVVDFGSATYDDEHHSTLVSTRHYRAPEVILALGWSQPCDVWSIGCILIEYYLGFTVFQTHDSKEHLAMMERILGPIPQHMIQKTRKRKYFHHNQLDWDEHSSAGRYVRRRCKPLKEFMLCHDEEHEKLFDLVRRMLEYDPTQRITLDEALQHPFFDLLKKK

[15] = target: Dual specificity protein kinase CLK1 (Homo sapiens, UniProt P49759); test: Inhibition of human CLK1 expressed in HEK293 cells incubated for 2 hrs by NanoBRET assay; assay type: cell-based
Dual specificity protein kinase CLK1, sequence (P49759 whole entry, canonical isoform): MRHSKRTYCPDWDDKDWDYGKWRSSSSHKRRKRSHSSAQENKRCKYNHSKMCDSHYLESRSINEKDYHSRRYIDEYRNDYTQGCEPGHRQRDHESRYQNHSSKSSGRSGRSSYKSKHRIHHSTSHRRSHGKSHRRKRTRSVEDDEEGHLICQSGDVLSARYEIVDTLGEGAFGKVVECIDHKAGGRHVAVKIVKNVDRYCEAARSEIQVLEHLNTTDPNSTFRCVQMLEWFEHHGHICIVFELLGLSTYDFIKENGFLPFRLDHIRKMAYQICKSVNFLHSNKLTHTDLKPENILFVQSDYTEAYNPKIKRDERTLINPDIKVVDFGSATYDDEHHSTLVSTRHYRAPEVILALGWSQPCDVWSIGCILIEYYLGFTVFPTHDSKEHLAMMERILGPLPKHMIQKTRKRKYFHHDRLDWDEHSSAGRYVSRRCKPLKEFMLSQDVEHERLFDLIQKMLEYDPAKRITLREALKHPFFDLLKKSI

[16] = target: Phosphorylase b kinase gamma catalytic chain, skeletal muscle/heart isoform (Homo sapiens, UniProt Q16816); test: Inhibition of human PHKG1 expressed in HEK293 cells incubated for 2 hrs by NanoBRET assay; assay type: cell-based
Phosphorylase b kinase gamma catalytic chain, skeletal muscle/heart isoform, sequence (Q16816 whole entry, canonical isoform): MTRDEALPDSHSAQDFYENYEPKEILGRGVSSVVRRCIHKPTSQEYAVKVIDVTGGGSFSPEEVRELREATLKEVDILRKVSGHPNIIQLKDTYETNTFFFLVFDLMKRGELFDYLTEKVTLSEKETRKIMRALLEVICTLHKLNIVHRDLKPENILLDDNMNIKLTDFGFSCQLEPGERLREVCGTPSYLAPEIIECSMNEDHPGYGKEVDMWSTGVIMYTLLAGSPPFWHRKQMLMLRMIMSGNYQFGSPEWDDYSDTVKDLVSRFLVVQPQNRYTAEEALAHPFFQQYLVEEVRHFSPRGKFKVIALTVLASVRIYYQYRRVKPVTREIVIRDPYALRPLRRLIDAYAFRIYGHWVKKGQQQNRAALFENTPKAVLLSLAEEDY

[17] = Apparent permeability from apical to basolateral side in MDCK-MDR1 cells at 1 uM incubated for 2 hrs by fluorescence plate reader analysis; assay type: ADME, cell-based, Canis lupus familiaris; details: dog, mdck-mdr1, 2 h
[18] = target: T1, Casein kinase II subunit alpha'; test: Inhibition of NLuc-fused CSNK2A2 (unknown origin) expressed in HEK293 cells incubated for 2 hrs by NanoBRET assay; assay type: cell-based
Target sequence in this assay (P19784 whole entry): as the sequence (P19784 whole entry) above

Murine hepatitis virus = test: Antiviral activity against Murine hepatitis virus infected in mouse DBT cells preincubated with cells for 1 hrs followed by viral infection and measured after 10 hrs by luminometer; assay type: functional, organism-based; details: Murine coronavirus
[19] = Cytotoxicity against human A549-ACE2 cells assessed as cell viability at 1 uM incubated for 48 hrs by CellTiter-Glo2 assay relative to control; assay type: toxicity, cell-based; details: a549-ace2, 48 h
[20] = Kinetic solubility of compound in PBS at pH 7.4 incubated for 24 hrs by HPLC analysis; assay type: physicochemical; details: buffer, pH 7.4, 24 h
[21] = Cytotoxicity against human A549-ACE2 cells assessed as cell viability at 0.1 uM incubated for 48 hrs by CellTiter-Glo2 assay relative to control; assay type: toxicity, cell-based; details: a549-ace2, 48 h

Structure (SMILES): CCN(CCN)c1ccc(Nc2cc(NC3CC3)n3ncc(C#N)c3n2)cc1-n1cnnc1
- IC50 [1]: 316 nM
- IC50 [2]: 2510 nM
- IC50 [3]: 3160 nM
- IC50 [4]: 15800 nM
- inhibition [5]: Active
- Papp [6]: 0.36 10^-6 cm/s
- IC50 [7]: 25100 nM
- CL [8]: 86 mL/min/kg
- Activity [9]: Non-Toxic
- IC50 [10]: 80 nM
- inhibition [10]: Dose-Dependent Effect
- IC50 [11]: 1.7 nM
- Activity [12]: inactive
- IC50 [13]: 0.66 nM
- IC50 [14]: 2510 nM
- IC50 [15]: 5010 nM
- IC50 [16]: 6310 nM
- Papp [17]: 0.16 10^-6 cm/s
- IC50 [18]: 316 nM
- IC50 (Murine hepatitis virus): 200 nM

Structure (SMILES): C[C@H](N)CN(C)c1ccc(Nc2cc(NC3CC3)n3ncc(C#N)c3n2)cc1-n1cnnc1
- Activity [19]: 76%
- Kinetic_solubility [20]: 50 µg/mL
- IC50 [18]: 316 nM
- IC50 (Murine hepatitis virus): 200 nM
- Activity [21]: 93%

Structure (SMILES): C[C@@H](N)CN(C)c1ccc(Nc2cc(NC3CC3)n3ncc(C#N)c3n2)cc1-n1cnnc1
- Activity [19]: 91%
- Kinetic_solubility [20]: 62 µg/mL
- IC50 [18]: 251 nM
- IC50 (Murine hepatitis virus): 501 nM
- Activity [21]: 95%

Structure (SMILES): N#Cc1cnn2c(NC3CC3)cc(Nc3ccc(F)c(-n4cnnc4)c3)nc12
- Activity [19]: 99%
- Kinetic_solubility [20]: 0.3 µg/mL
- IC50 [18]: 5.01 nM
- IC50 (Murine hepatitis virus): 316 nM
- Activity [21]: 99%

Structure (SMILES): N#Cc1cnn2c(NC3CC3)cc(Nc3ccnc(-n4cnnc4)c3)nc12
- Activity [19]: 98%
- Kinetic_solubility [20]: 0.27 µg/mL
- IC50 [18]: 10 nM
- IC50 (Murine hepatitis virus): 63.1 nM
- Activity [21]: 99%
